According to article PMC9743128, “Phenotype-based screening rediscovered benzopyran-embedded microtubule inhibitors as anti-neuroinflammatory agents by modulating the tubulin–p65 interaction” (Experimental & Molecular Medicine, 2022):
Like-named read-outs stand apart in the source and are kept apart here.

Legend:
[1] = test system: TNF-α secretion in BV-2 cells; assay: TNF-α ELISA of culture medium after LPS; format: cell-based, murine; settings: 10 μM
Method: BV-2 and RAW264.7 cells were treated with compounds in the absence or presence of LPS (100 ng/ml). After 24 h, TNF-α levels in the culture medium were measured using a TNF-α ELISA kit (R&D Systems; DY410) according to the manufacturer’s protocol. Briefly, capture antibodies were coated on 96-well Maxisorp Nunc-Immuno plates (Thermo; #439454) for 1 h and washed with PBS containing 0.05% Tween-20 (PBST) three times. The plates were blocked with 1% BSA-PBS for 1 h and washed with PBST three times. Culture medium was added to the 96-well plate for 1 h and washed with PBST three times. Biotinylated detection antibody was added to the 96-well plate for 1 h and washed with PBST three times. Streptavidin–horseradish peroxidase (HRP) was added to the plate for 20 min and washed with PBST three times. After 20 min of incubation with TMB substrate (Thermo; #002023), TMB oxidation was stopped by adding 2 N H2SO4. The absorbance at 450 nm, 540 nm, and 570 nm was measured using a microplate reader (BioTek; Synergy). The following formula was used to calculate the net signal: OD450nm–(OD540nm + OD570nm)/2.
Fig. 2 SB26019 has anti-inflammatory activity via the accumulation of tubulin monomers. SB26019 (10 μM for 6 h) regulated the mRNA levels (a) and protein levels (b) of downstream genes of NF-κB in BV-2 murine microglial cells more efficiently than the other known tubulin modulators (n = 3). c Both tubulin modulators (10 μM for 6 h) and transient Flag-tagged α-tubulin overexpression increased the total amount of tubulin monomers. d Quantification of the amount of tubulin polymer vs. monomer in (c). Tubulin modulators (10 μM for 6 h) and transient Flag-tagged α-tubulin overexpression proportionally regulated the NF-κB signaling pathway at the mRNA (e) and protein levels f in RAW264.7 murine macrophage cells (n = 3). Data are presented as the mean ± SD (ns, not significant, p > 0.05; *p < 0.05; **p < 0.01; ***p < 0.001).

in vitro = settings: mouse
Method: (§1) A total of 40,000 cells were seeded on a 96-well plate and incubated for 18 h. After 6-, 12- and 24-h compound treatment, 10 μL of EZ-Cytox solution (Dogen; EZ-BULK150) was added to the 96-well plate. After 30 min, the absorbance at 455 nm was measured using a microplate reader (BioTek; Synergy).
(§2) (n=6). Data are presented as the mean ± SD.

[2] = test system: p65 nuclear translocation in J774A.1 and RAW264.7 cells; assay: p65 nuclear translocation by immunofluorescence staining; format: cell-based, murine; settings: 10 μM for 1 h, then LPS; LPS alone 80%, basal 40%
Method: To monitor p65 translocation, J774A.1 cells were treated with compounds for 1 h, followed by LPS (100 ng/ml) treatment for 30 min. The cells were fixed with 4% paraformaldehyde (Sigma; #158127) in PBS (w/v) for 30 min at room temperature. After washing with 1× PBS (Welgene; ML008-02) three times, the fixed cells were permeabilized with PBS containing 0.1% Triton X-100 for 10 min. The cells were washed with 1× PBS three times and then blocked with 4% bovine serum albumin (MP Biomedicals; #0216006980) in PBS (w/v) for 1 h. The cells were incubated with mouse anti-p65 antibody (Santa Cruz; sc-8008, 1:200 diluted in 1% BSA–PBS) at 4 °C overnight and washed with PBS three times. FITC-labeled goat anti-mouse IgG antibody (Abcam; ab6785, 1:200 diluted in 1% BSA–PBS) was added to the sample and incubated for 1 h at room temperature. The remaining antibodies were finally washed three times with PBS. Nuclei were stained with Hoechst 33342 (Thermo; #62249). The cellular p65 proteins were imaged by fluorescence microscopy (GE Healthcare; Delta Vision) and quantified by the line profiling method.
During activation of the NF-κB signaling pathway, IκB is phosphorylated and degraded by proteasomes. The released p65 from IκB is translocated to the nucleus, inducing the transcription of target genes for inflammatory responses. Therefore, we monitored the translocation of p65 upon SB26019 treatment in J774A.1 and RAW264.7 murine macrophage cells stained with fluorescently labeled antibodies. […]

[3] = test system: LPS-mediated NO release in BV-2 microglial cells; assay: Griess assay: cellular NO release after LPS treatment; format: cell-based, murine; settings: for IC50: 100 ng/mL LPS, 24 h
Method: Cellular secretion of nitric oxide (NO) was quantified with the Griess assay. BV-2 cells were seeded on a clear flat bottom TC-treated 96-well plate (Corning; #3598) and sealed with breathable sealing tape (Axygen; BF-400-S). After 18 h, BV-2 cells were treated with compounds in the absence or presence of 100 ng/mL LPS (Sigma; L4391). After 24 h, 50 μL of the cell culture media was mixed with the same volume of Griess reagent {0.1% naphthylethylenediamine dihydrochloride (Sigma; #222488) and 1% sulfanilamide (Sigma; S9251) in 4% phosphoric acid (Daejung; #6532-4405)}. Absorbance at 550 nm was measured using a microplate reader (BioTek; Synergy). Sodium nitrite (Alfa Aesar; A18668) was used for standard curve generation.
Microglia are tissue-resident macrophages involved in CNS immunosurveillance[3],[39]. Microglial activation induces proinflammatory cytokine tumor necrosis factor α (TNF-α) expression, resulting in neural toxicity[5],[6]. Therefore, the inhibition of microglial activation is critical for regulating neuroinflammation. To discover anti-neuroinflammatory NCEs, we monitored the cellular release of nitric oxide (NO) in response to lipopolysaccharide (LPS) treatment as a mimic of pathogenic activation of innate immune systems upon compound treatment in BV-2 cells using the Griess assay.

[4] = Cell viability assay (EZ-Cytox); settings: mouse, BV-2 microglial cells
Method: as §1, §2

tubulin [5] = target: T1, tubulin (Homo sapiens, UniProt P07437+P68363); assay: Cellular thermal shift assay (CETSA); format: cell-based
T1 construct: endogenous in cells
T1 sequence (P07437 whole entry): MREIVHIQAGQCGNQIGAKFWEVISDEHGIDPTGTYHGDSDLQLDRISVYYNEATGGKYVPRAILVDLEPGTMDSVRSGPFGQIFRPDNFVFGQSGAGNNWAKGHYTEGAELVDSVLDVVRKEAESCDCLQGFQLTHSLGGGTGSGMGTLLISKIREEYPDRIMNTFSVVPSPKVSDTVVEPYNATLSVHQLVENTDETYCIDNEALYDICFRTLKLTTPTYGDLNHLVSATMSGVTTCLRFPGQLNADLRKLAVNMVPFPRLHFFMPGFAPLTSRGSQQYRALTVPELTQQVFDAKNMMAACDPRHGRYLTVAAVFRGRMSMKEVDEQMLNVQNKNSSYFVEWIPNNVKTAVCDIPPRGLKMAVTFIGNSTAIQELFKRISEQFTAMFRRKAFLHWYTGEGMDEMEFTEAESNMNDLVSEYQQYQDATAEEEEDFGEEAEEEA
T1 sequence (P68363 whole entry): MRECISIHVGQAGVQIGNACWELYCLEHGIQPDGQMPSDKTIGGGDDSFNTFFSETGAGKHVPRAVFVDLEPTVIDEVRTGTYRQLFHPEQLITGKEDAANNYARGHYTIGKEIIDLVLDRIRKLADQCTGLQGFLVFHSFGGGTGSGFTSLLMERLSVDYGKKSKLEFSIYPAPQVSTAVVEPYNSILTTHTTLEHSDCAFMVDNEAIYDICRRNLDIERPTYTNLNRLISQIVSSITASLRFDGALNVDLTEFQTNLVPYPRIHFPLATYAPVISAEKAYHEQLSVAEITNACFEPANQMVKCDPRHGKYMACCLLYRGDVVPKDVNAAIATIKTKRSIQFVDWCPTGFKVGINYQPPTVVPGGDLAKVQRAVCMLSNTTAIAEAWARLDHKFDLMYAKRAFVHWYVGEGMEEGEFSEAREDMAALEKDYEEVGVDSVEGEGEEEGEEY

BV-2 cells = assay: Cell viability assay (EZ-Cytox); settings: 10 μM
Method: as §1, §2

tubulin [6] = target: T2, tubulin (Sus scrofa, UniProt P02550+P02554); assay: Tubulin polymerization assay; format: biochemical; settings: 1 μM compound
T2 construct: purchased Cytoskeleton BK006P
T2 sequence (P02554 whole entry): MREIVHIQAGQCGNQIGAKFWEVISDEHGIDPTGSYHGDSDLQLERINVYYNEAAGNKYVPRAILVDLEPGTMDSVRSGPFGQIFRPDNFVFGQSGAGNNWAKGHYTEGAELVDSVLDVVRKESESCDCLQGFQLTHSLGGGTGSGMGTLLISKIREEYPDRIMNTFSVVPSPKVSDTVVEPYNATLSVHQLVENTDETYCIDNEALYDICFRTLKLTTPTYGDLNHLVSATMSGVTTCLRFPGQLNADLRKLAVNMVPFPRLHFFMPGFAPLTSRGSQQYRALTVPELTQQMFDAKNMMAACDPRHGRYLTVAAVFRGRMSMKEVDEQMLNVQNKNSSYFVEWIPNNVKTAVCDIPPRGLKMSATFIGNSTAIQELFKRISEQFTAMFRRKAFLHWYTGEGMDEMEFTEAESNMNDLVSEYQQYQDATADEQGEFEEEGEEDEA
T2 sequence (P02550 whole entry): as the sequence (P68363 whole entry) above, with L136S, S232G, I265A, S340T, Q358E counted along it
Method: The tubulin polymerization inhibition efficacy of the compounds was measured by a tubulin polymerization assay kit (Cytoskeleton; BK006P) according to the manufacturer’s manual. Absorbance at 340 nm was measured to observe the formation of tubulin polymers using a microplate reader (Biotek; Synergy).
Supplementary Fig. 4. Tubulin polymerization inhibition by compounds 1–13 (1 μM). In the presence or absence of compounds, tubulin was incubated to polymerize at room temperature. Absorbance at 340 nm was measured in a time-dependent manner for monitoring the rate of tubulin polymerization.
Supplementary Table 2. Tubulin polymerization inhibition of the focused library. Tubulin was incubated with each compound (1 μM) and the tubulin polymerization inhibition was monitored. Vmax was calculated from tubulin polymer generation curve data of Supplementary Fig. 3.

[7] = Mus musculus, BV-2 cells, LPS, read-out: % NO inh. at 10 μM

In the case of COc1cc2c(c(OC)c1OC)-c1ccc(OC)c(=O)cc1[C@@H](NC(C)=O)CC2 [Colchicine], the “TNF-α levels compared to that of the DMSO control” value [1] is reported as < 50%, the viability at 10 µM (in vitro) is reported as 114% and the “p65 nuclear translocation in the presence of LPS” value [2] is reported as < 60%. It also gave an inhibition at 10 µM [3, 7] of 51.8%.

With COc1ccc2c(c1O)OC(C)(C)C=C2c1ccc(Cl)cc1C [Compound 1] the viability at 10 µM [4] was 102%, the “Thermal shift of tubulin in CETSA” value (tubulin [5]) was “slight thermal sensitization” and the inhibition at 10 µM [3, 7] was 69.4%. It also gave an inhibition at 10 µM ([3]; Mus musculus, BV-2 microglial cells, read-out: LPS-mediated NO release inhibited down to) of 70% and an IC50 ([3]; Mus musculus, BV-2 cells) of 5.22 µM.

With COc1ccc2c(c1O)OC(C)(C)C=C2c1ccc(F)cc1C [Compound 2] the “% Viab. at 10 μM” value (BV-2 cells) was 105.3%, the “% NO inh. at 10 μM” value ([3]; BV-2 cells, LPS) was 65.3% and the IC50 ([3]; BV-2 cells) was 5.94 µM.

With COc1ccc2c(c1O)OC(C)(C)C=C2c1ccc(F)cc1 [Compound 3] the “% Viab. at 10 μM” value (BV-2 cells) was 88.0%, the “% NO inh. at 10 μM” value ([3]; BV-2 cells, LPS) was 9.9% and the IC50 ([3]; BV-2 cells) was 22.3 µM.

In the case of COc1ccc2c(c1O)OC(C)(C)C=C2c1ccccc1C [Compound 4], the “% Viab. at 10 μM” value (BV-2 cells) is reported as 106.1%, the “% NO inh. at 10 μM” value ([3]; BV-2 cells, LPS) is reported as 73.3% and the IC50 ([3]; BV-2 cells) is reported as 7.19 µM.

In the case of COc1ccc2c(c1O)OC(C)(C)C=C2c1cc(C)ccc1C [Compound 5], the “% Viab. at 10 μM” value (BV-2 cells) is reported as 99.7%, the “% NO inh. at 10 μM” value ([3]; BV-2 cells, LPS) is reported as 46.9% and the IC50 ([3]; BV-2 cells) is reported as 9.89 µM.

For COc1ccccc1C1=CC(C)(C)Oc2c1ccc(OC)c2O [Compound 6], the “% Viab. at 10 μM” value (BV-2 cells) was 113.8%, the “% NO inh. at 10 μM” value ([3]; BV-2 cells, LPS) was 87.1% and the IC50 ([3]; BV-2 cells) was 5.09 µM.

For COc1ccc2c(c1O)OC(C)(C)C=C2c1cccc2cccnc12 [Compound 7], the “% Viab. at 10 μM” value (BV-2 cells) was 101.5%, the “% NO inh. at 10 μM” value ([3]; BV-2 cells, LPS) was 98.0% and the IC50 ([3]; BV-2 cells) was 5.01 µM.

With COc1ccc2c(c1O)OC(C)(C)C=C2c1cccc2c1sc1ccccc12 [Compound 9] the “% Viab. at 10 μM” value (BV-2 cells) was 103.6%, the “% NO inh. at 10 μM” value ([3]; BV-2 cells, LPS) was 90.0% and the IC50 ([3]; BV-2 cells) was 1 µM.

In the case of COc1ccc2c(c1O)OC(C)(C)C=C2c1cccc2c1Sc1ccccc1S2 [Compound 10], the “% Viab. at 10 μM” value (BV-2 cells) is reported as 102.1%, the “% NO inh. at 10 μM” value ([3]; BV-2 cells, LPS) is reported as 36.8% and the IC50 ([3]; BV-2 cells) is reported as 13.1 µM.

In the case of COc1ccc2c(c1O)OC(C)(C)C=C2c1cccc(-c2ccccc2)c1 [Compound 11], the “% Viab. at 10 μM” value (BV-2 cells) is reported as 106.1%, the “% NO inh. at 10 μM” value ([3]; BV-2 cells, LPS) is reported as 61.6% and the IC50 ([3]; BV-2 cells) is reported as 6.71 µM.

With CCOC(=O)CCC1(C)C=C(c2ccc(Cl)cc2C)c2ccc(OC)c(O)c2O1 (stereo not drawn) [Compound 12] the “% Viab. at 10 μM” value (BV-2 cells) was 105.6%, the “% NO inh. at 10 μM” value ([3]; BV-2 cells, LPS) was 72.3% and the IC50 ([3]; BV-2 cells) was 7.45 µM.

With CCOC(=O)CCC1(C)C=C(c2cccc3c2oc2ccccc23)c2ccc(OC)c(O)c2O1 (stereo not drawn) [Compound 13] the “% Viab. at 10 μM” value (BV-2 cells) was 111.4%, the “% NO inh. at 10 μM” value ([3]; BV-2 cells, LPS) was 101.2% and the IC50 ([3]; BV-2 cells) was 1.79 µM.

In the case of COC(=O)Nc1nc2ccc(C(=O)c3cccs3)cc2[nH]1 [Nocodazole, reference compound], the viability at 10 µM [4] is reported as 93.8%, the “TNF-α levels compared to that of the DMSO control” value [1] is reported as < 50% and the “p65 nuclear translocation in the presence of LPS” value [2] is reported as < 60%. The “Vmax of microtubule polymerization compared to DMSO control” value (tubulin [6]) was “reduced Vmax”, the inhibition at 10 µM [3, 7] was 54.9% and the IC50 ([3]; Mus musculus, BV-2 cells) was 13.4 µM.
